SMILES strings stand for the structures.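 Exposure lasted 48 hours, with cells grown in 96-well plates and compounds tested at five concentrations. Here, GI50 denotes the concentration required for 50% inhibition of growth.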 Calls of active or inactive are those of the source. Rule as the data show it: active = GI50 up to about 1.1 µM and inactive = higher.

We go through three compounds from ChEMBL document CHEMBL1201862, “PubChem BioAssay data set” (2004).

Test systems include BT-549; CAKI-1; DU-145; HCC 2998; HCT-15; HL-60; Hs-578T; IGROV-1; KM-20L2; LOX IMVI; M14; MDA-MB-231; Malme-3M; NCI-H23; PC-3; SK-OV-3; T47D; SF-295; SF-539; SNB-19.
Holding throughout (assay): growth of human tumour cells (NCI), 48 h

`OCC1CCC(n2cnc3c(O)ncnc32)O1` (configuration not stated): the GI50 is > 1000 µM (inactive) in the test on BT-549; > 100 µM (inactive) in the test on CAKI-1; > 1000 µM (inactive) with DU-145; > 100 µM (inactive) with HCC 2998; more than 100 µM in the test with HCT-15; > 100 µM (inactive) with HL-60. Moreover, the GI50 was > 1000 µM (inactive) in the test with Hs-578T; > 100 µM (inactive) in the test on IGROV-1; > 100 µM (inactive) in the test on KM-20L2; > 100 µM (inactive) in the test on LOX IMVI; > 1000 µM (inactive) in the test on M14; > 1000 µM (inactive) with MDA-MB-231. Also, the GI50 is > 100 µM (inactive) with Malme-3M; > 100 µM (inactive) in the test on NCI-H23; > 1000 µM (inactive) in the test on PC-3; > 100 µM (inactive) in the test with SK-OV-3; > 1000 µM (inactive) in the test with T47D.

Take `Cc1ccc2nc3c(C)c(Cl)c(=O)cc-3sc2c1`: the GI50 in the test with BT-549 was 20.9 µM (inactive); with CAKI-1, 28.2 µM (inactive); in the test with DU-145, 44 µM (inactive); in the test on HCC 2998 it was 40.3 µM (inactive); with HCT-15 it was 10.6 µM; in the test on HL-60, 2.59 µM (inactive). The GI50 with Hs-578T is 21.7 µM (inactive); in the test on IGROV-1, 37.9 µM (inactive); with KM-20L2, 78 µM (inactive); with LOX IMVI, 13.9 µM (inactive); in the test on M14 it was 15.2 µM (inactive); in the test with MDA-MB-231, 3.35 µM (inactive). Moreover, the GI50 was > 45.7 µM (inactive) in the test with Malme-3M; 13.2 µM (inactive) in the test with NCI-H23; 8.93 µM (inactive) in the test on PC-3; 23.3 µM (inactive) with SF-295; 13.1 µM (inactive) with SF-539; > 100 µM (inactive) in the test on SK-OV-3. Moreover, the GI50 is 24 µM (inactive) in the test on SNB-19 and 58.1 µM (inactive) in the test on T47D.

With `Cc1[nH]c(=O)nc(N/N=C/c2ccc(Cl)cc2)c1C(=O)Nc1ccc(Cl)cc1`, the GI50 is > 100 µM (inactive) with BT-549; 53.5 µM (inactive) in the test with CAKI-1; > 100 µM (inactive) in the test with DU-145; > 100 µM (inactive) in the test with HCC 2998; 38.5 µM with HCT-15; > 100 µM (inactive) in the test on HL-60. Moreover, the GI50 with Hs-578T was > 100 µM (inactive); with IGROV-1, > 86.3 µM (inactive); with KM-20L2, > 100 µM (inactive); with LOX IMVI, 14.9 µM (inactive); in the test on M14 it was 8.07 µM (inactive); with MDA-MB-231 it was 9.2 µM (inactive). Besides, the GI50 in the test with Malme-3M was 16.9 µM (inactive); with NCI-H23, 30.7 µM (inactive); with PC-3 it was > 60.1 µM (inactive); with SF-295 it was 20.6 µM (inactive); in the test with SF-539, 21.2 µM (inactive); with SK-OV-3, 12.2 µM (inactive). The GI50 in the test on SNB-19 is 7.41 µM (inactive); in the test with T47D, 13.7 µM (inactive).
